Reference: patent EP4420661B1, “SMALL MOLECULES TARGETING GLYCOPROTEIN VI AS ANTIPLATELET AGENTS FOR USE IN THE PREVENTION AND/OR TREATMENT OF THROMBOSIS AND ASSOCIATED PATHOLOGIES” (Universidade de Santiago de Compostela, priority 2023, dated 2024)
Values after ≈ are worked out from the molar mass of the structure shown.

Legend:
[1] = solubility by nephelometry; settings: 1% dmso/pbs, 37 °C, aqueous buffer, kinetic from dmso stock
Experimental: Solubility was determined by nephelometry to assess its potential impact on the bioassays at active concentrations.
Then, said compounds were incubated for 2 hours at 37°C and read in a NEPHELOstar Plus (BMG LABTECH).

[2] = plasma protein binding, Rapid Equilibrium Dialysis (RED), rat; type: in vitro ADME; settings: 4h at 37°C
Experimental: (§1) Plasma from Seralab was employed in the assay and was carried out by employing Rapid Equilibrium Dialysis (RED) from Thermo Scientific.
(§2) The compounds were dissolved at 5 µM in plasma and added to the corresponding insert of the RED device. Dialysis buffer was added to the corresponding insert of the RED device. Plate was incubated for 4h at 37°C.
(§3) After the incubation period 50 µL aliquots of each chamber were transferred to empty vials. 50 µL of dialysis buffer were added to the plasma samples and 50 µL of plasma were added to the buffer samples. 300 µL of acetonitrile were added to all the samples and centrifuged at 4000 rpm 100 µL aliquots of the supernatants were transferred to a LC analysis plate. Samples were analyzed in a UPLC/MS/MS. Stationary phase: Acquity UPLC® BEHC18 1,7 µm (2.1 mm x 50 mm) (Waters). Gradient: A (H2O + 0.1% Formic acid); B (ACN + 0.1% Formic acid); Flow: 0.6mL/min Table 8: UPLC gradient / Protein binding assay
(§4) The chromatographic equipment employed was an ACQUITY UPLC / Xevo TQD System. Compound concentrations were calculated from the MS peak areas. Table 9: Plasma protein binding of the compounds of formula (I) in rat, mice, dogs and humans / (*) low recovery

Plasma protein = assay: as above; type: in vitro ADME; settings: 5 µM, 4h at 37°C
Experimental: as §1, §2, §3, §4

[3] = metabolic stability, mouse microsomes; type: in vitro ADME
Experimental: Samples were transferred to a microplate and 75 µl Acetonitrile + IS(Rolipram) were added for inactivating the microsomes, and 30 µl of H2O with 0.5% formic acid for improving the chromatographic conditions and kept at 4°C. When all the samples were taken the plate was centrifuged at 46000 g for 30 min at 15°C. Stationary phase: ACQUITY BEH C18 1.7µm 2.1x50mm (Waters) Mobile phase: A: 0.1% formic; B: acetonitrile+0.1% formic acid Gradient: Table 6: UPLC gradient / Metabolic stability assay

[4] = metabolic stability, dog microsomes; type: in vitro ADME; settings: Dog microsomes
Experimental: (§5) Microsomes from Tebu-bio Xenotech were employed in the assay, having a content of 20 mg/ml of protein. The following quantities were added to each well of a 96-well microplate. Table 6: Metabolic stability assay.
(§6) Plates were incubated at 37°C and 75 µL samples were taken at 0, 10, 20, 40 and 60 minutes.
(§7) Samples were transferred to a microplate and 75 µl Acetonitrile + IS(Rolipram) were added for inactivating the microsomes, and 30 µl of H2O with 0.5% formic acid for improving the chromatographic conditions and kept at 4°C. When all the samples were taken the plate was centrifuged at […] for 30 min at 15°C. Stationary phase: ACQUITY BEH C18 1.7µm 2.1x50mm (Waters) Mobile phase: A: 0.1% formic; B: acetonitrile+0.1% formic acid Gradient: Table 6: UPLC gradient / Metabolic stability assay
(§8) Metabolic stability was calculated from the logarithm of the remaining compound at each of the times evaluated.

human platelets [5] = assay: platelet aggregation assay, CRP-induced; type: cell-based; settings: Homo sapiens, Platelet, CRP 1 µg/mL
Experimental: Platelet aggregation assays were carried out to assess the potency of the active compounds as previously described [Barrachina et al. (2021)].
Briefly, human platelets from at least =7 healthy individuals were isolated and washed. Then, the suspension was incubated with the compounds at 10 µM at 37 ∘C for 4 min in a Chrono-log® 490-X aggregometer (Chrono-log Corporation, Havertown, PA, USA). After that, platelets were stimulated with the agonist CRP at 1 µg/mL for 5 min.

[6] = plasmatic stability, rat plasma; type: in vitro ADME; settings: for Plasmatic stability: Rat plasma
Experimental: (§9) Rat, human, mouse and dog plasma pooled from healthy donors extracted in citrate tubes was employed in the assay.
(§10) […] Then 300µl Acetonitrile were added for precipitating plasma protein, and the plate was centrifuged at 4000 g for 60 min at 4°C.
(§11) Supernatant was taken and analyzed by UPLC/MS/MS for sample quantification. Stationary phase: Reverse phase ACQUITY BEH C18 1.7µm 2.1x50mm (Waters) Mobile phase: 0.1% Formic acid water/0.1% formic acid in acetonitrile Gradient: Table 4: UPLC gradient / Plasmatic stability assay
(§12) The chromatographic equipment employed was an UPLC QSM Waters Acquity. Compound concentrations were calculated from the MS peak areas.

[7] = metabolic stability, rat microsomes; type: in vitro ADME; settings: Rat microsomes
Experimental: as §5, §6, §7, §8

human platelets [8] = assay: intracellular Ca+2 mobilization assay, CRP-activated washed platelets (FLIPR Calcium 4); type: cell-based; settings: Platelet, calcium mobilization in human platelets, read-out: % Inhibition of CRP effect at 1µM, Mean
Experimental: An intracellular Ca^+2 mobilization assay was used to test the activity of the ligands in platelets. This assay measures the changes in calcium in real time by fluorophore dye Calcium 4, providing a useful way to characterize platelet activation by GPVI signaling [Barrachina et al. (2021)].
Washed platelets (5x10E6) were incubated with FLIPR Calcium 4 reagent (Molecular Devices LLC, San Jose, CA, USA) in a 384-well transparent bottom plate (Greiner Bio-One International GmbH, Kremsmünster, Austria) and supplemented with Probenecid (Invitrogen™, Carlsbad, CA, USA) 0.07% for 1 h at 37 °C. Platelets were co-incubated for 10 min with the tested compounds and inhibitors of secondary mediators (2 U/mL apyrase and 10 microM indomethacin (Sigma-Aldrich, Saint Louis, MO, USA)) under nonaggregating conditions (9 microM eptifibatide (Cayman Chemicals, Ann Arbor, MI, USA)). Then, the GPVI-specific agonist Collagen-Related Peptide (CRP) was added to the platelet suspension at different doses. Both potential GPVI inhibitors and CRP were automatically dispensed by FDSS7000EX Functional Drug Screening System (Hamamatsu Photonics, Hamamatsu, Japan). Intracellular Ca^2+ mobilization was assessed by measuring fluorescence changes ([…] wavelengths) in real time for 15 min after the addition of the agonist. 100% was expressed as maximal Ca^2+ release in platelets treated with the agonist CRP. To determine IC50, compounds were tested at 9 different concentrations in duplicates starting from 10 uM and performing 1:3 serial dilutions. The analysis of the data was performed with GraphPad Prism® software (version 6.0e, March 2014) (GraphPad Software, San Diego, CA, USA) by carrying out a nonlinear regression fit for log(inhibitor) vs. relative CRP activity using a Hill slope of -1, and top and bottom constraints of 100 and 0, respectively.

[9] = plasmatic stability, mouse plasma; type: in vitro ADME; set-up: unit not given beside the values
Experimental: as §9, §10, §11, §12

O=C(Cc1ccc2c(c1)OCCO2)Nc1nc(-c2ccc3c(c2)CCC(=O)N3)cs1 [Compound (If)]
solubility at 2 h [1]: 61.5 µM (≈ 25.9 µg/mL) | fraction unbound at 4 h, 5 µM [2]: 0.001 | Unbound fraction (Plasma protein): 0.10% | half-life [3]: 1.82 h | microsomal CLint [3]: 7.09 µL/min/mg | % remanent (*) ([3]; (*) sampling time 60 min): 71.6% | half-life [4]: 5.42 h | microsomal CLint [4]: 2.17 µL/min/mg | % remanent (*) ([4]; (*) sampling time 60 min): 89.2% | inhibition at 10 µM (human platelets [5]): 70 ± 19% | Plasmatic stability ([6]; 10µM, t 0 min): 100.0 | Plasmatic stability ([6]; 10µM, t 60 min): 105.5 | Plasmatic stability ([6]; 10µM, t 120 min): 105.4 | Plasmatic stability ([6]; 10µM, t 360 min): 81.6 | Plasmatic stability ([6]; 100µM, t 0 min): 100.0 | Plasmatic stability ([6]; 100µM, t 60 min): 88.8 | Plasmatic stability ([6]; 100µM, t 120 min): 95.1 | Plasmatic stability ([6]; 100µM, t 360 min): 65.7 | plasmatic stability (in words) ([6]; rats): high plasmatic stability | half-life [7]: 1.03 h | microsomal CLint [7]: 8.89 µL/min/mg | % remanent (*) ([7]; (*) sampling time 60 min): 49.9% | inhibition at 1 µM (human platelets [8]): 31% | Plasmatic stability ([9]; 10µM, t 0 min): 100.0 | Plasmatic stability ([9]; 10µM, t 60 min): 67.8 | Plasmatic stability ([9]; 10µM, t 120 min): 41.6 | Plasmatic stability ([9]; 10µM, t 360 min): 5.6 | Plasmatic stability ([9]; 100µM, t 0 min): 100.0 | Plasmatic stability ([9]; 100µM, t 60 min): 77.6 | Plasmatic stability ([9]; 100µM, t 120 min): 57.5 | Plasmatic stability ([9]; 100µM, t 360 min): 9.6
